Data on eight molecules can be found in patent publication US7112600B1, “Fused-ring compounds and use thereof as drugs” (Japan Tobacco Inc., priority 1999, dated 2006).

The test system of data set [1] is HCV type 1a. Put plainly: inhibitory activity on HCV type 1a. The settings on record: statement in words, no method described.
A short description of data set [2]: blood concentration when administered to an animal. It counts as in vivo. The note with it: when administered as a pharmaceutical agent to an animal; statement in words.
The subject of data set [3] is HCV type 1b. Put plainly: inhibitory activity on HCV type 1b. The note with it: statement in words, no method described.
Data set [4] deals with T1, HCV polymerase (Hepatitis C virus genotype 1b, UniProt P26663).
T1 construct: a region encoding NS5B (591 amino acids; J Virol 1991 Mar, 65(3), 1105-13) was amplified by PCR; 6 His (N); made in house; host or cells: Escherichia coli
T1 sequence (P26663 2420-3010): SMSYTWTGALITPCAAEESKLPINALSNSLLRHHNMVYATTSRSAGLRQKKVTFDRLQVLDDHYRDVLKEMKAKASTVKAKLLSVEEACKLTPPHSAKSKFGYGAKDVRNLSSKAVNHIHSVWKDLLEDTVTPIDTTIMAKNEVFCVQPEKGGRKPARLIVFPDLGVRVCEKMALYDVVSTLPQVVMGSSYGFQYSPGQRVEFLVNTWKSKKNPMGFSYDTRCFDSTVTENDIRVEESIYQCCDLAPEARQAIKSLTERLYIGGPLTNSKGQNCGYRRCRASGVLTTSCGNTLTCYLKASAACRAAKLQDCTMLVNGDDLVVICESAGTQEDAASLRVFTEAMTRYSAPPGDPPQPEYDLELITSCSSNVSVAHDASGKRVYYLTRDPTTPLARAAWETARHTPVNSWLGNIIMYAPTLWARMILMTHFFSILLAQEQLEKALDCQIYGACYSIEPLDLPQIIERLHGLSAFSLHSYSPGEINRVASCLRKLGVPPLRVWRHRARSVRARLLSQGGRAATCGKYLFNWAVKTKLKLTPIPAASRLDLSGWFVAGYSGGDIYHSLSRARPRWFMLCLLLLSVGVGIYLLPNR
Briefly: biochemical. The settings on record: read-out: HCV polymerase inhibitory activity IC50. An excerpt: The evaluation of the HCV polymerase inhibitory activity of the compound of the present invention is explained in the following. This polymerase is an enzyme coded for by the non-structural protein region called NS5B on the RNA gene of HCV (EMBO J., 15:12-22, 1996).
i) Preparation of enzyme (HCV polymerase)
Using, as a template, a cDNA clone corresponding to the full length RNA gene of HCV BK strain obtained from the blood of a patient with hepatitis C, a region encoding NS5B (591 amino acids; J Virol 1991 Mar, 65(3), 1105-13) was amplified by PCR. The objective gene was prepared by adding a 6 His tag {base pair encoding 6 continuous histidine (His)} to the 5′ end thereof and transformed to Escherichia coli. The Escherichia coli capable of producing the objective protein was cultured. The obtained cells were suspended in a buffer solution containing a surfactant and crushed in a microfluidizer.
ii) Synthesis of substrate RNA
Using a synthetic primer designed based on the sequence of HCV genomic 3′ untranslated region, a DNA fragment (148 bp) containing polyU and 3′X sequence was entirely synthesized and cloned into plasmid pBluescript SK II(+) (Stratagene). The cDNA encoding full length NSSB, which was prepared in i) above, was digested with restriction enzyme KpnI to give a cDNA fragment containing the nucleotide sequence of from the restriction enzyme cleavage site to the termination codon. This cDNA fragment was inserted into the upstream of 3′ untranslated region of the DNA in pBluescript SK II(+) and ligated. The about 450 bp inserted DNA sequence was used as a template in the preparation of substrate RNA.
RNA was synthesized (37° C., 3 hr) by run-off method using this purified DNA as a template, a promoter of pBluescript SK II(+), MEGAscript RNA synthesis kit (Ambion) and T7 RNA polymerase. DNaseI was added and the mixture was incubated for 1 hr. The template DNA was removed by decomposition to give a crude RNA product.
This RNA was applied to formaldehyde denaturation agarose gel electrophoresis to confirm the quality thereof and preserved at −80° C.
iii) Assay of enzyme (HCV polymerase) inhibitory activity
A test substance (compound of the present invention) and a reaction mixture (30 μl) having the following composition were reacted at 25° C. for 90 min.
10% Trichloroacetic acid at 4° C. and 1% sodium pyrophosphate solution (150 μl) were added to this reaction mixture to stop the reaction. The reaction mixture was left standing in ice for 15 min to insolubilize RNA. This RNA was trapped on a glass filter (Whatman GF/C and the like) upon filtration by suction. This filter was washed with a solution containing 1% trichloroacetic acid and 0.1% sodium pyrophosphate, washed with 90% ethanol and is dried. A liquid scintillation cocktail (Packard) was added and the radioactivity of RNA synthesized by the enzyme reaction was measured on a liquid scintillation counter.
The HCV polymerase inhibitory activity (IC50) of the compound of the present invention was calculated from the values of radioactivity of the enzyme reaction with and without the test substance.
Reaction mixture : HCV polymerase (5 μg/ml) obtained in i), substrate RNA (10 μg/ml) obtained in ii), ATP (50 μM), GTP (50 μM), CTP (50 μM), UTP (2 μM), [5,6-^3H]UTP (46 Ci/mmol (Amersham), […]) 20 mM Tris-HCl (pH 7.5), EDTA (1 mM), MgCl2 (5 mM), NaCl (50 mM), DTT (1 mM), BSA (0.01%)

Where a name gives a salt, the structure may show the parent alone.

Regarding `Cl.O=C(O)c1ccc2c(c1)nc(-c1ccc(OCc3cc(N4CCCC4=O)ccc3-c3ccc(Cl)cc3)cc1F)n2C1CCCCC1` [2-{4-[2-(4-chlorophenyl)-5-(2-oxopyrrolidin-1-yl)benzyloxy]-2-fluorophenyl}-1-cyclohexylbenzimidazole-5-carboxylic acid hydrochloride], in data set [1], the “inhibitory activity on HCV type 1a” value is given as “high inhibitory activity”. Besides, the blood concentration entry in data set [2] is “high blood concentration”. Moreover, the “inhibitory activity on HCV type 1b” value in data set [3] is listed as “high inhibitory activity”.
A word on the IC50: it is the point on the concentration scale where inhibition reaches its midpoint. On to `COc1cc(CCOc2ccc(-c3nc4cc(C(=O)O)ccc4n3C3CCCCC3)cc2)cc(OC)c1OC` [Example 101, 1-cyclohexyl-2-{4-[2-(3,4,5-trimethoxyphenyl)ethoxy]phenyl}-benzimidazole-5-carboxylic acid], for which the 50% inhibitory concentration (IC50) in data set [4] came to 140 nM.
As to `O=C(O)c1ccc2c(c1)nc(-c1ccc(OCCN3c4ccccc4CCc4ccccc43)cc1)n2C1CCCCC1` [Example 116, 1-cyclohexyl-2-{4-[2-(10,11-dihydro-5H-dibenzo[b,f]azepin-5-yl)ethoxy]phenyl}benzimidazole-5-carboxylic acid], in data set [4], the IC50 is 370 nM.
Turning to `O=C(O)c1ccc2c(c1)nc(-c1ccc(Oc3cccc(Oc4ccccc4)c3)cc1)n2C1CCCCC1` [Example 129, 1-cyclohexyl-2-[4-(3-phenoxyphenoxy)phenyl]benzimidazole-5-carboxylic acid], in data set [4], the IC50 was 120 nM.
On the same count and under the same terms, then `O=C(O)c1ccc2c(c1)nc(-c1ccc(Oc3cc(-c4cccc(Cl)c4)ncn3)cc1)n2C1CCCCC1` [Example 240, 2-{4-[4-(3-chlorophenyl)-6-pyrimidinyloxy]phenyl}-1-cyclohexylbenzimidazole-5-carboxylic acid], with 55 nM.
Same read-out and setting: then `COC(=O)c1ccc2c(c1)nc(-c1ccc(OCc3cc(C(=O)O)ccc3-c3ccc(Cl)cc3)cc1F)n2C1CCCCC1` [Example 281, methyl 2-{4-[5-carboxy-2-(4-chlorophenyl)benzyloxy]-2-fluorophenyl}-1-cyclohexylbenzimidazole-5-carboxylate hydrochloride], with 52 nM; and `O=C(O)c1ccc2c(c1)nc(-c1ccc(OC(c3cccnc3)c3cccnc3)cc1F)n2C1CCCCC1` [Example 300, 2-{4-[bis(3-pyridyl)methoxy]-2-fluorophenyl}-1-cyclohexylbenzimidazole-5-carboxylic acid], with 45 nM.
The same measure, in the same setting: then `CN(C)C(=O)c1ccc(-c2ccc(Cl)cc2)c(COc2ccc(-c3nc4cc(-c5nnn[nH]5)ccc4n3C3CCCCC3)c(F)c2)c1` [Example 434, 2-{4-[2-(4-chlorophenyl)-5-(dimethylcarbamoyl)benzyloxy]-2-fluorophenyl}-1-cyclohexyl-5-tetrazol-5-ylbenzimidazole], with 11 nM.
